What was measured:
NR1A /2B = biological target: T1, NR1A /2B (Rattus norvegicus, UniProt P35439+Q00960); assay: Electrophysiological assay at NMDA receptor subunits NR1A/2B expressed in Xenopus oocytes; assay type: cell-based; conditions: rat clones in Xenopus oocytes, currents activated by glutamate (100 μM) and glycine (1-100 μM)
T1 construct: expressed in transfected cells; host or cells: Xenopus laevis oocytes (cRNA micro-injection)
Source text: (§1) Many of the properties of native NMDA receptors are seen in recombinant homomeric NR1 receptors expressed in Xenopus oocytes. These properties are altered by the NR2 subunits. Recombinant NMDA receptors expressed in Xenopus oocytes have been studied by voltage-clamp recording, as has developmental and regional expression of the mRNAs encoding NMDA receptor subunits. Electrophysiological assays were utilized to characterize the actions of compounds at NMDA receptors expressed in Xenopus oocytes.
(§2) Electrophysiological Assays at NMDA receptor subunits.
(§3) cDNA clones encoding the NR1A, NR2A, NR2B, and NR2C rat NMDA receptor subtypes were used. […] The clones were transformed into appropriate host bacteria and plasmid preparations were made with conventional DNA purification techniques. A sample of each clone was linearized by restriction enzyme digestion and cRNA was synthesized with T3 RNA polymerase. The cRNA was diluted to 400 ng/μl and stored in 1 μl aliquots at -80° C. until injection.
(§4) The Xenopus Oocyte Expression System
(§5) Follicle-enclosed oocytes were micro-injected with 1:1 mixtures of NR1A:NR2A, 2B or 2C; infecting 1-10 ng of RNA encoding each receptor subunit. NR1A encoding RNA was injected alone at ~20 ng. Oocytes were stored in Barth's medium containing (in mM):NaCl, 88; KCl, 1; CaCl2, 0.41; Ca(NO3)2, 0.33; MgSo4, 0.82 NaHCO3, 2.4; HEPES 5, pH 7.4, with 0.11 mg/ml gentamicin sulphate. While oocytes were still surrounded by enveloping ovarian tissues the Barth's medium was supplemented with 0.1% bovine serum.
(§6) Electrical recordings were made using a conventional two-electrode voltage clamp (Dagan TEV-200) over periods ranging between 3-21 days following injection. […] Drugs were applied by bath perfusion. Using oocytes expressing different subunit combinations of NMDA receptor, NMDA currents were activated by co-application of glutamate (100 μM) and glycine (1-100 μM). Inhibitory potency of the novel antagonists was assessed on responses elicited by fixed concentrations of glutamate and glycine, by measuring reductions in current induced by progressively increasing concentrations of antagonist. Concentration-inhibition curves were fit with equation 1.
(§7) in which Icontrol is the current evoked by agonists alone, pIC50 =-log IC50, IC50 is the concentration of antagonist that produces half maximal inhibition, and n is the slope factor. […] For incomplete curves analysis by fitting was unreliable and IC50 values were calculated by simple regression over linear portions of the curves (Origin: Microcal Software).

[1] = system: 6-Hydroxydopamine-lesioned rats; assay: 6-OHDA Rat Assay: potentiation of contraversive rotation induced by L-DOPA methyl ester; assay type: in vivo, Sprague-Dawley rats; conditions: po; L-DOPA methyl ester 10 mg/kg SC; total contraversive rotations over 6 hour vs L-DOPA only
Description: Adult male Sprague-Dawley rats were anesthetized with chloral hydrate and unilateral lesions of the nigrostriatal dopamine system were accomplished by infusion of 8 μg of 6-hydroxydopamine HBr (6-OHDA) into the right medial forebrain bundle. […] A minimum of 3 weeks after surgery, the rotational behavior induced by apomorphine HCL 50 μg/kg subcutaneously (SC) was assessed. […] Rotational behavior was measured using an automatic rotometer system (Rotorat Rotational Activity System, MED Associates, Georgia, Vt.). Anti-parkinsonian activity was assessed as the ability of the compound to potentiate the contraversive rotation induced by L-DOPA methyl ester, 10 mg/kg SC, over a 6 hour period. Experiments were conducted using a crossover paradigm where each rat received either a vehicle plus L-DOPA, or the test compound plus L-DOPA, in randomized order. Rats were tested at 7 day intervals. In experiments in which the compound was tested orally, rats were food deprived for 16 hours. Statistical analysis between treatment groups were performed using a paired t-test.

[2] = system: d-amphetamine-induced stimulation; conditions: injected into rat nucleus accumbens vs striatum; cited from earlier work
NR1A /2C = biological target: T2, NR1A /2C (Rattus norvegicus, UniProt P35439+Q00961); assay: Electrophysiological assay at NMDA receptor subunits NR1A/2C expressed in Xenopus oocytes; assay type: cell-based; conditions: rat clones in Xenopus oocytes, currents activated by glutamate (100 μM) and glycine (1-100 μM)
T2 construct: expressed in transfected cells; host or cells: Xenopus laevis oocytes (cRNA micro-injection)
T2 sequence (Q00961 20-1237, other chains not shown): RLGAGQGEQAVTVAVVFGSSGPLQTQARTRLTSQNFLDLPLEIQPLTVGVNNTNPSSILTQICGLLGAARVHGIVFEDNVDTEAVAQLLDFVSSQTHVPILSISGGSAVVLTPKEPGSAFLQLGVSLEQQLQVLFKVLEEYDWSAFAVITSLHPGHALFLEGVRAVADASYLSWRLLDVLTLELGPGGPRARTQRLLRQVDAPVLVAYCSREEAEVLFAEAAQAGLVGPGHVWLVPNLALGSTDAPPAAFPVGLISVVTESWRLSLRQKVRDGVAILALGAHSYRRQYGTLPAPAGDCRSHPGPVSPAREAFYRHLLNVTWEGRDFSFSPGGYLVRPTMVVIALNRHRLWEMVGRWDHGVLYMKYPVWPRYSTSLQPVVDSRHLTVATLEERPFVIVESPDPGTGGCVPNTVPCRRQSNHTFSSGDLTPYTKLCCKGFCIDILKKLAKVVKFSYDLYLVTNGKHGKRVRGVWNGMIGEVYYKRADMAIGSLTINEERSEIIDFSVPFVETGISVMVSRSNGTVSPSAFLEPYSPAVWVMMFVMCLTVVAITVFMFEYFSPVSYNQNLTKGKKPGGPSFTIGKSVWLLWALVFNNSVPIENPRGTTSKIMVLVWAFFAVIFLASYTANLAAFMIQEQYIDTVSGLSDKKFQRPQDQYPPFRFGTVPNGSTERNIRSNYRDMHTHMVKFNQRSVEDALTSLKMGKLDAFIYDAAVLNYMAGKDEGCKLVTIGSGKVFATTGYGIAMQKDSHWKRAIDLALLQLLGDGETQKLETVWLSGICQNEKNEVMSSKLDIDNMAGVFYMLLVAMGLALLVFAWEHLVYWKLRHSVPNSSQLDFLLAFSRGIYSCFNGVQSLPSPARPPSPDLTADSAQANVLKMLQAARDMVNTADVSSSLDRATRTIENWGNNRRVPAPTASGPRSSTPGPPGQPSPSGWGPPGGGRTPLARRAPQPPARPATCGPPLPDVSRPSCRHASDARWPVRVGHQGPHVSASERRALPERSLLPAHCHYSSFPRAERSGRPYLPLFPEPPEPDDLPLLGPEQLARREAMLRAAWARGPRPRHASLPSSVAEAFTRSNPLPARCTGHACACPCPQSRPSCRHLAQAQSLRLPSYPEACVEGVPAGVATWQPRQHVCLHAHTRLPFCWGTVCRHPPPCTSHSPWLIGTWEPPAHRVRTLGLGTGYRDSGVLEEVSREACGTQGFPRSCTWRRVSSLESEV
Source text: as §1, §2, §3, §4, §5, §6, §7

NRIA /2A = biological target: T3, NRIA /2A (Rattus norvegicus, UniProt P35439+Q00959); assay: Electrophysiological assay at NMDA receptor subunits NR1A/2A expressed in Xenopus oocytes; assay type: cell-based; conditions: rat clones in Xenopus oocytes, currents activated by glutamate (100 μM) and glycine (1-100 μM)
T3 construct: expressed in transfected cells; host or cells: Xenopus laevis oocytes (cRNA micro-injection)
T3 sequence (Q00959 23-1464, other chains not shown): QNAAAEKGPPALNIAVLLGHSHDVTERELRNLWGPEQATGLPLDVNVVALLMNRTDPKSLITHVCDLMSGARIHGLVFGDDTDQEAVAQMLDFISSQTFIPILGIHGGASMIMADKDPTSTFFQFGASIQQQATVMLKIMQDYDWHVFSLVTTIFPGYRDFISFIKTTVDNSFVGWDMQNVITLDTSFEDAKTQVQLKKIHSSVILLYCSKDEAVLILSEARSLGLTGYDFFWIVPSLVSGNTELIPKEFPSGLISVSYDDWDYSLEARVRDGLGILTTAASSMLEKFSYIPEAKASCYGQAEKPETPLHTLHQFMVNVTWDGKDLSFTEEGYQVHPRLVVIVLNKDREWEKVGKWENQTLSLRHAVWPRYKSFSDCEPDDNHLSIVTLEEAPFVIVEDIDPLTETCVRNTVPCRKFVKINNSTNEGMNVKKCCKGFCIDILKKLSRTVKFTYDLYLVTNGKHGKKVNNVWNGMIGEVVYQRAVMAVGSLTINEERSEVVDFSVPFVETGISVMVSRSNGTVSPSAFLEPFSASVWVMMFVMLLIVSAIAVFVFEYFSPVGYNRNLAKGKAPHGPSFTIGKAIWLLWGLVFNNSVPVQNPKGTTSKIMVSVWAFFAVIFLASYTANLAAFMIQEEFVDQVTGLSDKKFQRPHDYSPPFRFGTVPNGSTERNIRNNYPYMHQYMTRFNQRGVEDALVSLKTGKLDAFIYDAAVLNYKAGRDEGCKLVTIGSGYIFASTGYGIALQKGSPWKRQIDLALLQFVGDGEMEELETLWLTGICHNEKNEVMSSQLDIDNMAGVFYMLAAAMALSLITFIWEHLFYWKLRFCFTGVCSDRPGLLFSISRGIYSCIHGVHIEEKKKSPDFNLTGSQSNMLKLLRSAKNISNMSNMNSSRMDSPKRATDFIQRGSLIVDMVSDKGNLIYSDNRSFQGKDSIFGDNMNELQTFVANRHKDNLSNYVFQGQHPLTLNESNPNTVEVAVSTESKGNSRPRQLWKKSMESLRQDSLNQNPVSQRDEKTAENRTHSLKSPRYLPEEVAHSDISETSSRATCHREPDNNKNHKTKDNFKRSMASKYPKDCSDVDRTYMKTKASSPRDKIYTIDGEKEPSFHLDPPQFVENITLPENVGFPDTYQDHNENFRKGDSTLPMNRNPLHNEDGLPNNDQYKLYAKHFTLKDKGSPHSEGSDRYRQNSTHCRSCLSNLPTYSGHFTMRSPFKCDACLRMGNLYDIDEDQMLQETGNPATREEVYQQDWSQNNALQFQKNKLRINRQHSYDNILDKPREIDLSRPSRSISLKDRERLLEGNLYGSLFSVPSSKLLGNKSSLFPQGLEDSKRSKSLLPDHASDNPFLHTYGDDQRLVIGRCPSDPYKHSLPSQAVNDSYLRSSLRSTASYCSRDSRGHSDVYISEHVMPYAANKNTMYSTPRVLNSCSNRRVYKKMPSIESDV
Source text: as §1, §2, §3, §4, §5, §6, §7

[3] = at plasma levels leading to NMDA receptor antagonism; cited from earlier work

T1 sequence (Q00960 27-1482, other chains not shown): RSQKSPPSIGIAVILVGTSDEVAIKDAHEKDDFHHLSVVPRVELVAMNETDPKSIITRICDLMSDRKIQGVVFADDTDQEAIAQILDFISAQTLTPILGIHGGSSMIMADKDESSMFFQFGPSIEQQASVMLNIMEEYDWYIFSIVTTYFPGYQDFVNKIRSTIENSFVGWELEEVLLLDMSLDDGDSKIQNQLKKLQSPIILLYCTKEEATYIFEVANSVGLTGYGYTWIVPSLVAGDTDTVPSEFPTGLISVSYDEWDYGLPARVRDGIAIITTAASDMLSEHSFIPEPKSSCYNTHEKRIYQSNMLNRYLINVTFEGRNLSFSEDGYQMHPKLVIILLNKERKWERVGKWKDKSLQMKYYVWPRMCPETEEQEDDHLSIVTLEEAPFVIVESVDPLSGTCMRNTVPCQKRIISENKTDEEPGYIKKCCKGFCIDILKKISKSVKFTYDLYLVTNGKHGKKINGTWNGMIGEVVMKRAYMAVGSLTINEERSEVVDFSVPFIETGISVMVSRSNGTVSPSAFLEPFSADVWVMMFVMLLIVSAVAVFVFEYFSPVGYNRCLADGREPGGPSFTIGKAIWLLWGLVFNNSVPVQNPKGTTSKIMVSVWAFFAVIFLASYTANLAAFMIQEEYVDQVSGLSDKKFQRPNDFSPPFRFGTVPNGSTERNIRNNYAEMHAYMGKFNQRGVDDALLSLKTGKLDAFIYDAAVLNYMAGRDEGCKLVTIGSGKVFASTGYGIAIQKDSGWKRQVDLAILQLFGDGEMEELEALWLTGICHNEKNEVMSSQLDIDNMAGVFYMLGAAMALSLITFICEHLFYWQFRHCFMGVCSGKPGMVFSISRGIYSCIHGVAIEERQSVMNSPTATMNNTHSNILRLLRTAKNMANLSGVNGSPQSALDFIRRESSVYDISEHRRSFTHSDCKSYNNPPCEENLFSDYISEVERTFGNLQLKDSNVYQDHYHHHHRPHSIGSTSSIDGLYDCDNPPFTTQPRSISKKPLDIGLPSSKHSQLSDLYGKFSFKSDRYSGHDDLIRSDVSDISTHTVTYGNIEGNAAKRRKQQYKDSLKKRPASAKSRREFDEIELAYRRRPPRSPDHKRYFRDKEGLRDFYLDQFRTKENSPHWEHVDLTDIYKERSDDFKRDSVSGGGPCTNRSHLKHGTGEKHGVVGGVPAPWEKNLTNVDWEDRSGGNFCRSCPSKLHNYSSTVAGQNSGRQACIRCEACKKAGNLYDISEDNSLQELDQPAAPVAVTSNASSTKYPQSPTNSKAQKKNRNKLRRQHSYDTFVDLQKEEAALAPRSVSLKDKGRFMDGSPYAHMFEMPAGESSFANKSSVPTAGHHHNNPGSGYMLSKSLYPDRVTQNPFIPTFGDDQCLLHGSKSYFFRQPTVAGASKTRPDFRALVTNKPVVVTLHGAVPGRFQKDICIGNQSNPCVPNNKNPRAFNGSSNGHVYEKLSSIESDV

Structure (SMILES)	IC50 (NR1A /2B) [µM]	IC50 (NR1A /2C) [µM]	IC50 (NRIA /2A) [µM]	6-OHDA rat MED (minimum effective dose) [1] [mg/kg]	antagonism of d-amphetamine-induced stimulation [2]	antiparkinsonian-like activity [3]
O=c1[nH]c2ccc([S+]([O-])CCN3CCC(Cc4ccc(F)cc4)CC3)cc2o1 (single isomer, unassigned; (+)) [Example 19, (+)-6-{2-[4-(4-fluorobenzyl)piperidine-1-yl]ethanesulfinyl}-3H-benzooxazol-2-one]	0.03			1		
O=c1[nH]c2ccc([S+]([O-])CCN3CCC(Cc4ccc(F)cc4)CC3)cc2o1 (single isomer, unassigned; (-)) [Example 20, (-)-6-{2-[4,(4-fluorobenzyl)piperidin-1-yl]ethanesulfinyl}-3H-benzooxazol-2-one]	0.03			30		
O=C(O)c1cc(O)c2c(Cl)cc(Cl)cc2n1 [5,7-dichlorokynurenic acid]					selectively antagonize d-amphetamine-induced stimulation when injected into rat nucleus accumbens but not in striatum	
N[C@@H]1CCN(O)C1=O [(+) HA-966]					selectively antagonize d-amphetamine-induced stimulation when injected into rat nucleus accumbens but not in striatum	
O=c1[nH]c2ccc([S+]([O-])CCN3CCC(Cc4ccc(F)cc4)CC3)cc2o1 (stereo not shown) [Example 1, 6-[2-[4-(4-Fluoro-benzyl)-piperidin-1-yl]-ethanesulfinyl]-3H-benzooxazol-2-one]	0.03	190	105	1		
O=c1[nH]c2ccc([S+]([O-])CCN3CCC(Cc4ccc(Cl)cc4)CC3)cc2o1 (stereo not shown) [Example 2, 6-{2-[4-(4-chloro-benzyl)-piperidin-1-yl]-ethanesulfinyl}-3H-benzooxazol-2-one]	0.02	200	> 300	3		
O=c1[nH]c2ccc([S+]([O-])CCN3CCC(Cc4ccccc4)CC3)cc2o1 (stereo not shown) [Example 4, 6-[2-(4-Benzyl-piperidin-1-yl)-ethanesulfinyl]-3H-benzooxazol-2-one]	0.03	> 300	> 300	3		
O=c1[nH]c2ccc([S+]([O-])CCN3CCC(Cc4ccccc4F)CC3)cc2o1 (stereo not shown) [Example 7, 6-{2-[4-(2-fluorobenzyl)-piperidin-1-yl]-ethanesulfinyl}-3H-benzooxazol-2-one]	0.09	60	55	10		
O=c1[nH]c2ccc([S+]([O-])CCN3CCC(Cc4cccc(F)c4F)CC3)cc2o1 (stereo not shown) [Example 11, 6-{2-[4-(2,3-difluorobenzyl)-piperidin-1-yl]-ethanesulfinyl}-3H-benzooxazol-2-one]	0.05	140	40	10		
O=c1[nH]c2ccc([S+]([O-])CCN3CCC(Cc4ccc(F)cc4F)CC3)cc2o1 (stereo not shown) [Example 12, 6-{2-[4-(2,4-difluorobenzyl)-piperidin-1-yl]-ethanesulfinyl}-3H-benzooxazol-2-one]	0.01	130	30	10		
O=c1[nH]c2ccc([S+]([O-])CCN3CCC(Cc4ccc(Cl)cc4Cl)CC3)cc2o1 (stereo not shown) [Example 15, 6-{2-[4-(2,4-dichlorobenzyl)-piperidin-1-yl]-ethanesulfinyl}-3H-benzooxazol-2-one]	0.04	150	90	10		
CC(=O)Nc1ccc(CC2CCN(CC[S+]([O-])c3ccc4[nH]c(=O)oc4c3)CC2)cc1 (stereo not shown) [Example 16, N-(4-{1-[2-(2-oxo-2,3-dihydrobenzooxazol-6-sulfinyl)ethyl]piperidin-4-ylmethyl}phenyl)acetamide]	10	> 300	> 300			
O=c1[nH]c2cc(Cl)c([S+]([O-])CCN3CCC(Cc4ccccc4)CC3)cc2o1 (stereo not shown) [Example 17, 6-[2-(4-benzylpiperidin-1-yl)ethanesulfinyl]-5-chloro-3H-benzooxazol-2-one]	0.16	> 300	40	> 10		
NC12CC3CC(CC(C3)C1)C2 [amantadine]						showed antiparkinsonian-like activity in animals
CC12CC3CC(C)(C1)CC(N)(C3)C2 [memantine]						showed antiparkinsonian-like activity in animals

More lines, in order of falling IC50 (NR1A /2B), values ahead:

IC50 (NR1A /2B) [µM]	IC50 (NR1A /2C) [µM]	IC50 (NRIA /2A) [µM]	Structure (SMILES)	6-OHDA rat MED (minimum effective dose) [1] [mg/kg]	antagonism of d-amphetamine-induced stimulation [2]	antiparkinsonian-like activity [3]
1.1	230	40	O=c1[nH]c2ccc([S+]([O-])CCN3CCC(O)(Cc4ccccc4)CC3)cc2o1 (stereo not shown) [Example 8, 6-[2-(4-benzyl-4-hydroxypiperidin-1-yl)-ethanesulfinyl]-3H-benzooxazol-2-one]			
0.9	200	50	O=c1[nH]c2ccc([S+]([O-])CCN3CCC(O)(Cc4ccc(F)cc4)CC3)cc2o1 (stereo not shown) [Example 9, 6-{2-[4-(4-fluorobenzyl)-4-hydroxy-piperidin-1-yl]-ethanesulfinyl}-3H-benzooxazol-2-one]	> 10		
0.34	140	70	O=C(c1ccccc1)C1CCN(CC[S+]([O-])c2ccc3[nH]c(=O)oc3c2)CC1 (stereo not shown) [Example 10, 6-[2-(4-benzoylpiperidin-1-yl)-ethanesulfinyl]-3H-benzooxazol-2-one]			
0.11	> 300	35	O=c1[nH]c2cc(Cl)c([S+]([O-])CCN3CCC(Cc4ccc(F)cc4)CC3)cc2o1 (stereo not shown) [Example 18, 5-Chloro-6-{2-[4-(4-fluorobenzyl)piperidin-1-yl]ethanesulfinyl}-3H-benzooxazol-2-one]	> 10		
0.1	150	55	COc1ccc(CC2CCN(CC[S+]([O-])c3ccc4[nH]c(=O)oc4c3)CC2)cc1 (stereo not shown) [Example 5, 6-{2-[4-(4-methoxybenzyl)-piperidin-1-yl]-ethanesulfinyl}-3H-benzooxazol-2-one]	> 10		
0.1	80	70	O=c1[nH]c2ccc([S+]([O-])CCN3CCC(Cc4ccc(Cl)c(Cl)c4)CC3)cc2o1 (stereo not shown) [Example 6, 6-{2-[4-(3,4-dichlorobenzyl)-piperidin-1-yl]-ethanesulfinyl}-3H-benzooxazol-2-one]	> 10		
0.04	150	35	O=c1[nH]c2ccc([S+]([O-])CCN3CCC(Cc4ccc(C(F)(F)F)cc4)CC3)cc2o1 (stereo not shown) [Example 13]	10		
0.04	160	55	O=c1[nH]c2ccc([S+]([O-])CCN3CCC(Cc4c(F)cccc4F)CC3)cc2o1 (stereo not shown) [Example 14, 6-{2-4[-(2,6-difluorobenzyl)-piperidin-1-yl]-ethanesulfinyl}-3H-benzooxazol-2-one]	> 10		
0.03		100	Cc1ccc(CC2CCN(CC[S+]([O-])c3ccc4[nH]c(=O)oc4c3)CC2)cc1 (stereo not shown) [Example 3, 6-{2-[4-(4-methyl-benzyl)-piperidin-1-yl]-ethanesulfinyl}-3H-benzooxazol-2-one]	3		

From patent US6284774A, “4-Benzyl piperidine alkylsulfoxide heterocycles and their use as subtype-selective NMDA receptor antagonists” (priority 2000, dated 2001)
